Tests used:
[1] = In vitro 3H-cocaine transport through swine skin, diffusion cells; format: in vitro ADME; conditions: donor 20 μCi/ml, receptor 50% NMP:H2O
Procedure: The receptor solution (50% NMP:H2O) was loaded in the lower chamber. Samples from the lower chamber (100 μl) were taken every hour and counted.

rats [2] = experiment: Detection of 14C-caffeine administered to rats: tissue radioactivity and hydrogel extraction; format: in vivo, rat; conditions: 2.5 hours
Procedure: Rats were shaven and fasted for 24 hours prior to caffeine administration by intraperitoneal injection of ^14C labeled caffeine to the 600 gram rats. Each animal received approximately 16.7 μCi of ^14C caffeine via intraperitoneal injection of 0.5 mL of ethanol and water.
A 50% NMP:50% water-Pluronic® F127 hydrogel was applied to 2.4 cm diameter plastic disks. The disks were attached to a jacket which was affixed to the backs of the rats. The disks were removed after 2.5 hours. The gel was removed and counted. The rats were sacrificed and blood and tissue were removed for analysis from each animal. The tissue samples were placed in liquid scintillation vials with 1.5 mL of Soluene® (Packard Instruments, Downers Grove, Ill.) in order to dissolve the tissues for valid liquid scintillation counting.

rats [3] = experiment: In vivo extraction of lead through the skin of lead-fed rats with NMP hydrogel; blood lead; parameters: species or system rat; conditions: Sprague Dawley rats, 750-1,000 ppm lead acetate in water supply, tail vein blood, for several weeks
Procedure: Determinations of blood lead (Pb) concentrations were conducted by obtaining a blood sample from the tail vein of the animals and analyzing them using an ESA brand LeadCare® Analyzer (Chelmsford, Mass.).
At that time, a clear hydrogel formulation containing 1 gram of the copolymer Pluronic® F127 (BASP), and 2.0 mL of deionized water and 2.0 mL of N-methyl pyrrolidone (Pharmasolve®, ISP, Wayne, N.J.) was prepared. Approximately 1.2 grams of hydrogel was applied to a 2.4 cm diameter polypropylene plastic disk. The disks were attached to a jacket which was affixed to the backs of the rats. The disks were removed after 1 hour.

[4] = rat, about 16.7 μCi 14C caffeine i.p.

COC(=O)[C@H]1[C@@H](OC(=O)c2ccccc2)C[C@@H]2CC[C@H]1N2C [^3H-cocaine, cocaine]
flux through pig skin in vitro [1]: 0.00317 μg/cm^2/hr

Cn1c(=O)c2c(ncn2C)n(C)c1=O [^14C caffeine, caffeine]
Radioactivity (mean dpm ± SD), NMP-Pluronic F127 Hydrogel (rats [2]; extracted through rat skin into 50% NMP:50% water-Pluronic F127 hydrogel): 58.82 dpm/cm^2/hr | Radioactivity (mean dpm ± SD), Blood (rats [2]; [4]): 87.24 dpm/μL | Radioactivity (mean dpm ± SD), Muscle (rats [2]; [4]): 64.30 ± 8.73 dpm/mg | Radioactivity (mean dpm ± SD), Skin (rats [2]; [4]): 52.15 ± 0.07 dpm/mg

CC(=O)[O-].CC(=O)[O-].[Pb+2] [lead acetate]
blood lead levels (rats [3]): 50 to 60 µg/dL

Source: patent US6492180B2, “Non-invasive transdermal detection of analytes” (priority 1998, dated 2002)
